Measured values: patent publication US10738056B2 (Aduro BioTech, Inc., priority 2017, dated 2020)
pIC50: −log10 of the molar value. Read-outs that look alike come from different tables or passages of the source.

Legend:
[1] = tested on: MCP-1/CCL2 secretion by Trex1-KO BMM; assay: Inhibition of MCP-1/CCL2 secretion by Trex1-KO bone marrow-derived macrophages; format: cell-based, mice; parameters: key to BMM IC50 M (MCP-1): A: an IC50 value less than 5 μM; B: an IC50 value between 5 and 20 μM; where an IC50 value could not be calculated from the data; conditions: for pIC50: Mus musculus, Macrophage
In short: (§1)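 Bone marrow macrophages from Trex1-KO mice, differentiated with M-CSF, 1×10^5 cells/well, treated overnight at 37 °C with a compound dilution series in FBS-free medium. Secreted cytokine measured by cytometric bead array from a standard curve, normalized to DMSO; viability by CellTiter-Glo.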

[2] = tested on: RANTES/CCL5 secretion by Trex1-KO BMM; assay: Inhibition of RANTES/CCL5 secretion by Trex1-KO bone marrow-derived macrophages; format: cell-based, mice; parameters: key to BMM IC50 R (RANTES): A: an IC50 value less than 5 μM; B: an IC50 value between 5 and 20 μM; where an IC50 value could not be calculated from the data; conditions: for pIC50: Mus musculus, Macrophage
In short: as §1

Trex1-KO BMM = assay: Viability of Trex1-KO BMM (Cell Titer Glo 2.0); format: cell-based, mice; conditions: Trex1-KO BMM at the cytokine IC50 concentrations
Description: The inhibition of secreted cytokine was measured in bone marrow-derived macrophages (BMMs) from diseased mice to evaluate the potency of compounds of the invention as described herein. […] To derive bone marrow macrophages, marrow extracted from the femurs and tibias were harvested from Trex1-KO mice was cultured in growth media supplemented with macrophage colony-stimulating factor (M-CSF). Differentiated BMM were harvested and frozen for subsequent experimentation. For treatment with compound C1089 (see Example 13), a frozen stock of Trex1-KO BMM was thawed and 1×10^5 cells were plated in 96 well format. BMMs were treated with a dilution series of C1089 and incubated overnight at 37° C. 5% CO2, at which point cellular supernatants were harvested and stored at −80° C. for subsequent analysis. The media used for this dilution series was without FBS. Remaining cells were evaluated for viability using Cell Titer Glo 2.0 kit according to the manufacturer instructions. BMM supernatants were evaluated for the secreted cytokine […] (RANTES/CCL5) or for secreted cytokine monocyte chemoattractant protein 1 (MCP-1/CCL2) using cytometric bead array mouse Flex Set kits (BD Biosciences). Cytokine concentration was calculated from a standard curve and normalized to vehicle (DMSO) treated cells.

[3] = tested on: cGAS/STING pathway in THP1 cells; assay: THP1 cell-based cGAS/STING pathway activity assay (IRF-3-linked luciferase reporter); conditions: Homo sapiens, THP-1
In short: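 THP1 cells carrying an IRF-3-driven luciferase reporter were read across a range of compound concentrations, and IC50 values were derived from these concentration responses; the assay upper limit was 100 μM.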

[4] = target: Human cGAS amino acids 155-522 (Homo sapiens (Human), UniProt Q8N884); assay: cGAS biochemical activity assay (ATP remaining, Kinase-Glo Max luminescence); conditions: human cGAS 155-522, ATP remaining (Kinase-Glo Max); read-out: cGAS IC50
Chain of Human cGAS amino acids 155-522 (Q8N884 157-522): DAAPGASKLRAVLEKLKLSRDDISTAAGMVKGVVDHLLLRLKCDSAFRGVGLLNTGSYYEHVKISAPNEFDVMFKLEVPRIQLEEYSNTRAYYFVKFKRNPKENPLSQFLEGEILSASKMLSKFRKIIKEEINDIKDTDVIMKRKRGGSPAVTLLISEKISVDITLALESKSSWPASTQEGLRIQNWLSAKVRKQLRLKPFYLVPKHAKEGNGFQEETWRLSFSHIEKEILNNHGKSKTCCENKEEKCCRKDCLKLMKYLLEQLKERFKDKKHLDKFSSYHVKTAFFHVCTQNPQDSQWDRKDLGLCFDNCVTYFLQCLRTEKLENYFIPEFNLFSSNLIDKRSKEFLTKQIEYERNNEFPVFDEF

[5] = Solubility of free base (footnote to Table 15); format: physicochemical; conditions: tested as the HCl salt
[6] = MCP-1 secretion, read-out: BMM IC50 M (MCP-1)
[7] = RANTES secretion, read-out: BMM IC50 R (RANTES)

Compound | pIC50 [3] | pIC50 [4] | solubility of the free base [5] | pIC50 [1, 6] | BMM IC50 R (RANTES) ([2]; RANTES secretion) | BMM IC50 M (MCP-1) ([1]; MCP-1 secretion) | pIC50 [2, 7] | pIC50 ([1]; overnight, media without FBS, normalized to DMSO, read-out: MCP-1/CCL2 IC50) | pIC50 ([2]; overnight, media without FBS, normalized to DMSO, read-out: RANTES/CCL5 IC50) | BMM viability (Trex1-KO BMM) [%]
COc1cccc2oc(-c3c(C#N)[nH]c4c(-c5ccccc5)c(C(F)(F)F)nn4c3=O)nc12 [Compound C1089, 6-(4-methoxybenzo[d]oxazol-2-yl)-7-oxo-3-phenyl-2-(trifluoromethyl)-4,7-dihydropyrazolo[1,5-a]pyrimidine-5-carbonitrile] | > 4.70 | > 4.70 | – | – | – | – | – | 5.16 | 5.90 | 100
COc1cc(CN)cc2oc(-c3c(C)[nH]c4c(-c5ccccc5)c(C(F)(F)F)nn4c3=O)nc12 [Compound C1128, 6-(6-(aminomethyl)-4-methoxybenzo[d]oxazol-2-yl)-5-methyl-3-phenyl-2-(trifluoromethyl)pyrazolo[1,5-a]pyrimidin-7(4H)-one] | – | < 3.60 | insoluble | – | – | – | – | – | – | –
COc1cccc2oc(-c3c(COC4CCCCO4)[nH]c4c(-c5ccccc5)c(C(F)(F)F)nn4c3=O)nc12 (stereo not drawn) [Compound C1134, 6-(4-methoxybenzo[d]oxazol-2-yl)-3-phenyl-5-(((tetrahydro-2H-pyran-2-yl)oxy)methyl)-2-(trifluoromethyl)pyrazolo[1,5-a]pyrimidin-7(4H)-one] | > 4.70 | > 4.70 | – | 4.70 to 5.30 | C | – | – | – | – | –
COc1ccc(Br)c2oc(-c3c(C)[nH]c4c(-c5ccccc5)c(C(F)(F)F)nn4c3=O)nc12 [Compound C1081, 6-(7-bromo-4-methoxybenzo[d]oxazol-2-yl)-5-methyl-3-phenyl-2-(trifluoromethyl)pyrazolo[1,5-a]pyrimidin-7(4H)-one] | > 4.70 | > 4.70 | – | 4.70 to 5.30 | – | – | 4.70 to 5.30 | – | – | –
COc1cc(Cl)cc2oc(-c3c(C)[nH]c4c(-c5ccccc5)c(C(F)(F)F)nn4c3=O)nc12 [Compound C1105, 6-(6-chloro-4-methoxybenzo[d]oxazol-2-yl)-5-methyl-3-phenyl-2-(trifluoromethyl)pyrazolo[1,5-a]pyrimidin-7(4H)-one] | > 4.70 | > 4.70 | – | 4.70 to 5.30 | – | – | > 5.30 | – | – | –
COc1c(Br)ccc2oc(-c3c(C)[nH]c4c(-c5ccccc5)c(C(F)(F)F)nn4c3=O)nc12 [Compound C1082, 6-(5-bromo-4-methoxybenzo[d]oxazol-2-yl)-5-methyl-3-phenyl-2-(trifluoromethyl)pyrazolo[1,5-a]pyrimidin-7(4H)-one] | > 4.70 | > 4.70 | – | – | C | C | – | – | – | –

The next lines start with results.

pIC50 [3] | pIC50 [4] | solubility of the free base [5] | pIC50 [1, 6] | BMM IC50 R (RANTES) ([2]; RANTES secretion) | BMM IC50 M (MCP-1) ([1]; MCP-1 secretion) | pIC50 [2, 7] | Compound | pIC50 ([1]; overnight, media without FBS, normalized to DMSO, read-out: MCP-1/CCL2 IC50) | pIC50 ([2]; overnight, media without FBS, normalized to DMSO, read-out: RANTES/CCL5 IC50) | BMM viability (Trex1-KO BMM) [%]
< 4.00 | > 4.70 | – | – | C | C | – | COc1ccc(Cl)c2oc(-c3c(C)[nH]c4c(-c5ccccc5)c(C#N)nn4c3=O)nc12 [Compound C1205, 6-(7-chloro-4-methoxybenzo[d]oxazol-2-yl)-5-methyl-7-oxo-3-phenyl-4,7-dihydropyrazolo[1,5-a]pyrimidine-2-carbonitrile] | – | – | –
< 4.00 | > 4.70 | – | – | C | C | – | COc1ccc(C)c2oc(-c3c(C)[nH]c4c(-c5ccccc5)c(C(F)(F)F)nn4c3=O)nc12 [Compound C1092, 6-(4-methoxy-7-methylbenzo[d]oxazol-2-yl)-5-methyl-3-phenyl-2-(trifluoromethyl)pyrazolo[1,5-a]pyrimidin-7(4H)-one] | – | – | –
> 4.70 | > 4.70 | – | – | C | C | – | Cc1[nH]c2c(-c3ccccc3)c(C(F)(F)F)nn2c(=O)c1C(=O)Nc1nc(C2CC2)cs1 [Compound A1095, N-(4-cyclopropylthiazol-2-yl)-5-methyl-7-oxo-3-phenyl-2-(trifluoromethyl)-4,7-dihydropyrazolo[1,5-a]pyrimidine-6-carboxamide] | – | – | –
4.00 to 4.70 | > 4.70 | – | 4.70 to 5.30 | C | – | – | COc1cc(Br)cc(NC(=O)c2c(C)[nH]c3c(-c4ccccc4)c(C(F)(F)F)nn3c2=O)c1 [Compound A1129, N-(3-bromo-5-methoxyphenyl)-5-methyl-7-oxo-3-phenyl-2-(trifluoromethyl)-4,7-dihydropyrazolo[1,5-a]pyrimidine-6-carboxamide] | – | – | –
